Results taken from patent US20230405063A1, “USE OF PROBIOTIC COMPONENT AND PHARMACEUTICAL COMPOSITION CONTAINING PROBIOTIC COMPONENT” (CHENGDU KUACHANGAOPU MEDICAL TECHNOLOGY CO., LTD., priority 2020, published 2023).

What was measured:
Format in all cases: in vivo
[1] = system: human pancreatic cancer cells (PANC-1); assay: Tumor inhibition in PANC-1 tumor-bearing nude mice, probiotic component/gemcitabine (Example 7, Table 13); conditions: dosed once, 100 μl/mouse/time, 7th day, probiotic component = supernatant component of disrupted Saccharomyces cerevisiae
Text: The method for determining the effect of combined drug administration in animal experiments was Burgi method (Burgi Y. Pharmacology; Drug actions and reactions. […] The Burgi method was modified by Zhengjun JIN (Zhengjun JIN, Equal probability and curve and “Q50”, Journal of the Second Shanghai Medical College; 1981, 1, 75-86) with q calculated as: q=EA+B/(EA+EB-EA×EB). In the following examples of the present invention, the combinational pharmaceutical efficacies (drug efficacies) of drug A and drug B co-administration was determined by ratio q of actual pharmaceutical efficacy (drug efficacy)/theoretical pharmaceutical efficacy (drug efficacy) according to Zhengjun JIN method, as follows. […] The model animals were randomly divided into 13 groups, and the drugs were administered according to Table 13.

lung tumor cells (A549) = assay: Tumor inhibition in A549 tumor-bearing nude mice, co-administration (Example 5, Table 7); conditions: dosed once, 7th day, probiotic component = heat-inactivated Saccharomyces boulardii
Text: The method for determining the effect of combined drug administration in animal experiments was Burgi method (Burgi Y. Pharmacology; Drug actions and reactions. Cancerres. 1978, 38(2), 284-285). The Burgi method was modified by Zhengjun JIN (Zhengjun JIN, Equal probability and curve and “Q50”, Journal of the Second Shanghai Medical College; 1981, 1, 75-86) with q calculated as: q=EA+B/(EA+EB−EA×EB). In the following examples of the present invention, the combinational pharmaceutical efficacies (drug efficacies) of drug A and drug B co-administration was determined by ratio q of actual pharmaceutical efficacy (drug efficacy)/theoretical pharmaceutical efficacy (drug efficacy) according to Zhengjun JIN method, as follows.
Nude mice were used as experimental subjects, and lung tumor cells (A549) were used as modeling cells, 1×10^5 cells/mouse were injected into the right axilla subcutaneously for transplantation tumor modeling, and the average tumor volume of successfully modeled nude mice was 153.7 mm^3. The model animals were randomly divided into 18 groups, and the drugs were administered according to the drug components and administration route in Table 7. Each group was dosed once with an injection volume of […]. Wherein, the probiotic component was heat-inactivated Saccharomyces boulardii, and the administration route of group 16 was intra-tumoral injection of probiotic component followed by intra-tumoral injection of 10% arginine about 2 hours later. On the 7th day after drug administration, the animals were euthanized, and after dissection, the tumor tissue was taken out to determine the tumor weight, and the tumor inhibition rate (r) was calculated relative to the negative control group. Further, the actual efficacy/expected efficacy ratio q of a drug could also be calculated according to the therapeutic effect (tumor inhibition rate).

breast cancer 4T1 cells = assay: Extra-tumoral local administration in 4T1 tumor-bearing BALB/c mice, R7d/R21d (Example 11, Table 17); conditions: subaxillary intradermal (extra-tumoral), twice at 7-day interval, 120 μl/mouse/time
Description: V=0.5×a×b^2, wherein a and b represent the length and width of the local lesion, respectively; Volume of the local lesion (e.g. tumor):
Local lesion (e.g., tumor) proliferation rate (R)=TV/CV×100, wherein TV and CV are the local lesion volumes in the study group and negative control group, respectively;
(§1) In the following examples of the present invention, the combinational pharmaceutical efficacies (drug efficacies) of drug A and drug B co-administration was determined by ratio q of actual pharmaceutical efficacy (drug efficacy)/theoretical pharmaceutical efficacy (drug efficacy) according to Zhengjun JIN method, as follows.
BALB/c mice were used as experimental subjects, and breast cancer 4T1 cells were used as modeling cells. 0.25×10^5 cells/mouse were injected into the right axilla subcutaneously for transplantation tumor modeling. On the 5th day after modeling, the test animals with visually obvious tumors were randomly divided into 12 groups, having 10 animals in each group. […] In groups 1-11, on days 7 and 21 after the last dose the tumor volume (V7d, V21d) were measured, and the relative tumor proliferation rates (R7d, R21d) were calculated relative to the negative control group on days 7 and 21 after the dose, so that the short-term therapeutic effectiveness (100%−R7d) and the medium- and long-term therapeutic effectiveness (100%−R21d) could be calculated, respectively. Further, based on the short-term therapeutic effectiveness and the medium- and long-term therapeutic effectiveness, the actual/expected ratio for short-term pharmaceutical efficacies q7d and the actual/expected ratio for medium- and long-term pharmaceutical efficacies q21d were calculated respectively.

[2] = system: human hepatoma cells (HepG2); assay: Tumor inhibition in HepG2 tumor-bearing nude mice, probiotic component/lysine (Example 7, Table 12); conditions: dosed twice, interval 7 days, 7th day after final administration, probiotic component = supernatant component of disrupted Saccharomyces cerevisiae
Description: as §1
Nude mice were used as experimental subjects, and human hepatoma cells (HepG2) were used as modeling cells. […] The model animals were randomly divided into 13 groups, and the drugs were administered according to Table 12. […] Each group was dosed twice at an interval of 7 days with an injection volume of […]. On the 7th day after final administration, the animals were euthanized, and the tumor tissues were taken out after dissection to determine the tumor weight, and the tumor inhibition rate was calculated relative to the negative control group.

[3] = intratumoral injection, '+' = arginine injected about 2 hours later
[4] = listed as 20% lysine, 20% lysine

Nc1ccn([C@@H]2O[C@H](CO)[C@@H](O)C2(F)F)c(=O)n1 [5% gemcitabine, gemcitabine]
Tumor inhibition rate [1]: 35.1% | Tumor weight (x ± s) [1]: 0.191 ± 0.077 g | Tumor inhibition rate ([1]; listed as 0.05% gemcitabine): 5.6% | Tumor inhibition rate ([1]; listed as 0.1% gemcitabine): 7.8% | Tumor inhibition rate ([1]; listed as […] gemcitabine): 30.4% | Tumor weight (x ± s) ([1]; listed as […] gemcitabine): 0.204 ± 0.103 g

N=C(N)NCCC[C@H](N)C(=O)O [10% arginine, arginine]
Tumor inhibition rate r (lung tumor cells (A549); [3]): 24.7% | Tumor weight (x ± s) (lung tumor cells (A549); [3]): 0.164 ± 0.061 g | Tumor inhibition rate r (lung tumor cells (A549); intravenous injection): 6.4% | Tumor weight (x ± s) (lung tumor cells (A549); intravenous injection): 0.196 ± 0.077 g

NCCCC[C@H](N)C(=O)O [25% lysine, lysine]
R7 d (relative tumor proliferation rate) (breast cancer 4T1 cells; day 7 after last dose): 96% | R21 d (relative tumor proliferation rate) (breast cancer 4T1 cells; day 21 after last dose): 102% | Tumor inhibition rate [2]: 54.1% | Tumor weight (x ± s) [2]: 0.109 ± 0.074 g | Tumor inhibition rate ([2]; 5% lysine): 11.3% | Tumor weight (x ± s) ([2]; 5% lysine): 0.211 ± 0.091 g | Tumor inhibition rate ([2]; listed as 1% lysine, 1% lysine): 5.2% | Tumor weight (x ± s) ([2]; listed as 1% lysine, 1% lysine): 0.226 ± 0.112 g | Tumor inhibition rate [2, 4]: 43.6% | Tumor weight (x ± s) [2, 4]: 0.134 ± 0.073 g
